In the NIST ThermoML archive (doi:10.1016/j.jct.2019.02.010):

Columns and labels:
[1] = 101.33 kPa; for mass density: Vibrating tube method; for viscosity: Falling or rolling sphere viscometry
[2] = xn = mol fraction of the nth substance listed; conditions: for viscosity / mass density: 101.3 kPa, Liquid; for viscosity: Falling or rolling sphere viscometry; for mass density: Vibrating tube method; for surface tension liquid-gas: 298.15 K, Ring tensiometer

CC(=O)CCC(=O)O [4-oxopentanoic acid]
[1], Metastable liquid
Conditions | mass density [kg/m3]
293.15 K | 1140.1
303.15 K | 1131.6
313.15 K | 1123
323.15 K | 1114.5
333.15 K | 1105.9
343.15 K | 1097.4

CC(=O)CCC(=O)O [4-oxopentanoic acid] + C[N+](C)(C)CCO.[Cl-]
[2], x2 = 0.333
Conditions | mass density [kg/m3] | viscosity [mPa·s]
293.15 K | 1141.9 | 362.08
303.15 K | 1135.2 | 183.72
313.15 K | 1128.5 | 103.46
323.15 K | 1121.9 | 62.8
333.15 K | 1115.3 | 39.59

Conditions | surface tension liquid-gas [mN/m]
[2], x2 = 0.333 | 39.95

CCCCO [butan-1-ol]
[1], Liquid
Conditions | mass density [kg/m3] | viscosity [mPa·s]
293.15 K | 809.5 | 2.95
303.15 K | 801.9 | 2.28
313.15 K | 794.1 | 1.79
323.15 K | 786.2 | 1.42
333.15 K | 778.1 | 1.15

C[N+](C)(C)CCO.[Cl-] [choline chloride] + OCCO
[2], x1 = 0.334
Conditions | mass density [kg/m3] | viscosity [mPa·s]
293.15 K | 1119.5 | 58.81
303.15 K | 1113.9 | 38.9
313.15 K | 1108.1 | 27.04
323.15 K | 1102.5 | 19.74
333.15 K | 1096.9 | 14.69

Conditions | surface tension liquid-gas [mN/m]
[2], x1 = 0.334 | 45.66

C[N+](C)(C)CCO.[Cl-] [choline chloride] + Oc1ccccc1
[2], x1 = 0.333
Conditions | mass density [kg/m3] | viscosity [mPa·s]
293.15 K | 1099.4 | 129.98
303.15 K | 1093.4 | 74
313.15 K | 1087.4 | 44.33
323.15 K | 1081.5 | 30.23
333.15 K | 1075.6 | 21.5

Conditions | surface tension liquid-gas [mN/m]
[2], x1 = 0.333 | 35.46
